This is an account of results in patent publication US8193203B2, “Bicyclic compounds having activity at the CXCR4 receptor” (Allergan, Inc., priority 2008, dated 2012).

By IC50 is commonly meant the concentration needed to halve the response being measured.

Some results are limits rather than exact numbers.

In the assay the target is T1, human CXCR4 receptor (Homo sapiens, UniProt P61073).
T1 construct: expressed in transfected cells
In words: Measurement of intracellular Ca+2 responses (FLIPR), antagonism of the SDF-1α response. The format is cell-based. Conditions: for IC50: HEK-Gqi5 cells stably expressing human CXCR4, Fluo-4 FLIPR, antagonism of SDF-1α 1.9 nM (EC65); for CXCR4 (% Inh): percent antagonism of SDF-1α 1.9 nM (EC65) response, HEK-Gqi5 human CXCR4 cells, value in brackets. The gist of the method:
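HEK-Gqi5 cells stably expressing CXCR4, Fluo-4-loaded (2 uM, 40 min, 37 °C), read on FLIPR. Compound (2.44-40,000 nM) added first for agonism, then SDF-1α at 1.9 nM final (EC65); IC50 and percent antagonism from second-addition calcium signal.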

T1 sequence (P61073 whole entry): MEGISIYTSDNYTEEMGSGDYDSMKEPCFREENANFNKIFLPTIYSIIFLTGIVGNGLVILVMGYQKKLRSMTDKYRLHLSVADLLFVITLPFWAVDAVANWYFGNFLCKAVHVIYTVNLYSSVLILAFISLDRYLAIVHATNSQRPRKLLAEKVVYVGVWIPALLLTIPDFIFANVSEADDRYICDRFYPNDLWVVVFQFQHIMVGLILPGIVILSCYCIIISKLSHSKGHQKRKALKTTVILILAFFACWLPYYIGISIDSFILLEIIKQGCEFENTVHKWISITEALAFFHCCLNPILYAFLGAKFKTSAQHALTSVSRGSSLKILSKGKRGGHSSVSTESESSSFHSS

Regarding `COc1cccc(N(C)C)c1CN1CCC(Nc2nc(NCc3ccccn3)nc3ccccc23)CC1` [Compound 84, N4-(1-(2-(Dimethylamino)-6-methoxybenzyl)piperidin-4-yl)-N2-(pyridin-2-ylmethyl)quinazoline-2,4-diamine], the “CXCR4 (% Inh)” value was determined as 95%. This compound came in with an IC50 (values in nM) of 574 nM.

Consider `COc1cccc(N(C)C)c1CN1CCC(Nc2nc(NCCCN3CCCC3=O)nc3ccccc23)CC1` [Compound 89, 1-(3-(4-(1-(2-(Dimethylamino)-6-methoxybenzyl)piperidin-4-ylamino)quinazolin-2-ylamino)propyl)pyrrolidin-2-one], for which the “CXCR4 (% Inh)” value is listed as 92%. For the setting “values given in μM”, the IC50 worked out at 1400 nM.

For `COc1cccc(N(C)C)c1CN1CCC(Nc2nc(NCC(F)(F)F)nc3ccccc23)CC1` [Compound 93, N4-(1-(2-(Dimethylamino)-6-methoxybenzyl)piperidin-4-yl)-N2-(2,2,2-trifluoroethyl)quinazoline-2,4-diamine], the “CXCR4 (% Inh)” value is listed as 79%. In addition, for the setting “values given in μM”, the IC50 worked out at 4300 nM.

In the case of `CCN(CC)CCCNc1nc(NC2CCN(Cc3ccccc3N)CC2)c2ccccc2n1` [Compound 149, N˜4˜-[1-(2-Aminobenzyl)piperidin-4-yl]-N˜2˜-[3-(diethylamino)propyl]quinazoline-2,4-diamine], the “CXCR4 (% Inh)” value was determined as 68%. The IC50 (values given in μM) is > 10000 nM.

For the compound `CN(C)CCCNc1nc(NC2CCN(Cc3c(OCCN(C)C)cccc3N(C)C)CC2)c2ccccc2n1` [Compound 228, N4-(1-(2-(Dimethylamino)-6-(2-(dimethylamino)ethoxy)benzyl)piperidin-4-yl)-N2-(3-(dimethylamino)propyl)quinazoline-2,4-diamine], the “CXCR4 (% Inh)” value is reported as 98%. In addition, the IC50 (values in nM) is 71 nM.

`COc1cccc(N(C)C)c1CN1CCC(Nc2nc(NCCN(C)C)nc3ccccc23)CC1` [Compound 153, N˜2˜-[2-(Dimethylamino)ethyl]-N˜4˜-{1-[2-(dimethylamino)-6-methoxybenzyl]piperidin-4-yl}quinazoline-2,4-diamine]: the “CXCR4 (% Inh)” value was 98%. The compound further registered an IC50 (values in nM) of 118 nM.

As for `COc1cccc(N(C)C)c1CN1CCC(Nc2nc(N3CCC3)nc3ccccc23)CC1` [Compound 88, 2-(Azetidin-1-yl)-N-(1-(2-(dimethylamino)-6-methoxybenzyl)piperidin-4-yl)quinazolin-4-amine], the “CXCR4 (% Inh)” value was found to be 94%. In addition, inhibition (values given in μM) was half-maximal at 1900 nM (IC50).

Turning to `COc1cccc(N(C)C)c1CN1CCC(Nc2nc(NC3CCN(C)CC3)nc3ccccc23)CC1` [Compound 94, N4-(1-(2-(Dimethylamino)-6-methoxybenzyl)piperidin-4-yl)-N2-(1-methylpiperidin-4-yl)quinazoline-2,4-diamine], the “CXCR4 (% Inh)” value is 96%. The same compound had an IC50 (values in nM) of 790 nM.

In the case of `COc1cc2nc(NCCN(C)C)nc(NC3CCN(Cc4c(OCCN5CCCC5)cccc4N(C)C)CC3)c2cc1OC` [Compound 193, N˜2˜-[2-(Dimethylamino)ethyl]-N˜4˜-{1-[2-(dimethylamino)-6-(2-pyrrolidin-1-ylethoxy)benzyl]piperidin-4-yl}-6,7-dimethoxyquinazoline-2,4-diamine], the “CXCR4 (% Inh)” value turned out to be 95%. The IC50 (values in nM) stood at 65 nM.

Turning to `COc1cc2nc(NCCCN3CCCC3)nc(NC3CCN(Cc4ccccc4N(C)C)CC3)c2cc1OC` [Compound 33], the “CXCR4 (% Inh)” value stood at 93%. Moreover, where the note is “values in nM”, half-maximal inhibition (IC50) required 617 nM.

In the case of `COc1cc2nc(NCCc3nccs3)nc(NC3CCN(Cc4c(OCCN(C)C)cccc4N(C)C)CC3)c2cc1OC` [Compound 209, N˜4˜-(1-{2-(Dimethylamino)-6-[2-(dimethylamino)ethoxy]benzyl}piperidin-4-yl)-6,7-dimethoxy-N˜2˜-[2-(1,3-thiazol-2-yl)ethyl]quinazoline-2,4-diamine], the “CXCR4 (% Inh)” value came to 92%. Moreover, under “values in nM”, 47 nM corresponded to half-maximal inhibition (IC50).

Turning to `CCCCNc1nc(NC2CCN(Cc3c(OC)cccc3N(C)C)CC2)c2ccccc2n1` [Compound 91, N2-Butyl-N4-(1-(2-(dimethylamino)-6-methoxybenzyl)piperidin-4-yl)quinazoline-2,4-diamine], the “CXCR4 (% Inh)” value worked out at 80%. Where the note is “values given in μM”, inhibition was half-maximal at 2000 nM (IC50).

As to `COc1cccc(N(C)C)c1CN1CCC(Nc2nc(N(CCO)C(C)=O)nc3ccccc23)CC1` [Compound 90, N-(4-(1-(2-(Dimethylamino)-6-methoxybenzyl)piperidin-4-ylamino)quinazolin-2-yl)-N-(2-hydroxyethyl)acetamide], the “CXCR4 (% Inh)” value turned out to be 93%. Further, the IC50 (values given in μM) was determined as 1500 nM.

As for `COc1cc2nc(NCCN)nc(NC3CCN(Cc4c(OCCN(C)C)cccc4N(C)C)CC3)c2cc1OC` [Compound 180, N˜2˜-(2-Aminoethyl)-N˜4˜-(1-{2-(dimethylamino)-6-[2-(dimethylamino)ethoxy]benzyl}piperidin-4-yl)-6,7-dimethoxyquinazoline-2,4-diamine], the “CXCR4 (% Inh)” value came out at 94%. Where the note is “values in nM”, this compound had an IC50 of 116 nM.

For `COc1cc2nc(NCc3cc[nH]n3)nc(NC3CCN(Cc4c(OCCN(C)C)cccc4N(C)C)CC3)c2cc1OC` [Compound 216, N˜4˜-(1-{2-(Dimethylamino)-6-[2-(dimethylamino)ethoxy]benzyl}piperidin-4-yl)-6,7-dimethoxy-N˜2˜-(1H-pyrazol-3-ylmethyl)quinazoline-2,4-diamine], the “CXCR4 (% Inh)” value is reported as 100%. Under “values in nM”, this compound came in with a half-inhibitory concentration (IC50) of 32 nM.
